{
  "source": "paper PMC9500858",
  "about": "(International Journal of Molecular Sciences, 2022)",
  "key": {"[1]": {"experiment": "Thermal degradation and freeze-thaw in Mili-Q water, LC-MS", "type": "physicochemical", "settings": "50 μg/mL in Mili-Q water; for Concentration Found (Mean ± SD) / Recovery: n = 3", "protocol": "(§1) The separation was carried out using Kinetex XB-C18 column (150 mm × 2.1 mm × 1.7 μm; Phenomenex, Torrance, CA, USA). The mobile phase consisted of A: 0.1% formic acid in deionized water and B: 0.1% formic acid in acetonitrile (MeCN). The two-step gradient was used from 5% B to 50% B in 13 min and from 50% B to 65% B up to 20 min. The column temperature was maintained at 25 °C with a flow rate equal to 0.3 mL/min. The eluate was introduced directly to the mass spectrometer. The ion trap setting was as follows: capillary voltage 4500 V, endplate offset 500 V, nebulizer pressure 40 psi, drying gas temperature 145 °C and gas flow rate 9 L/min. The instrument used a smart parameter setting (SPS) fixed at 1000 amu. The scan range was from m/z = 70 to m/z = 2200. Compounds were analyzed in […] ion mode.\n(§2) Before LC analysis, the ionization of each quantified compound in the positive ion mode was optimized by the direct injection of standard (50 µg/mL in 0.1% HCOOH in H2O; 0.3 mL/min) into the ESI source of the mass spectrometer. The intensity of the most abundant ion for each compound was monitored in order to choose optimal conditions. The quantification of investigated compounds was performed using the dominating ion (for both PK20 and [Ile^9] PK20 the ion at m/z =1357.40 ± 0.3, retention time ca. 11.2 min).\n(§3) The calibration curves were plotted as the amount of injected compound (ng) vs. detector response (peak area) using extracted ion chromatograms (EIC) for the characteristic ion for each compound. The linear range for each quantified compound was between 5 and 200 ng per injection. Five amount levels were used for the plotting of curves. Samples at each level were analyzed in triplicate.\n(§4) The stability of PK20 and [Ile^9]PK20 was tested under acidic, basic, oxidative, heat, freeze and ultraviolet light conditions. All experiments were conducted in triplicate (n = 3). The comparison of peak areas in degradative and non-degradative conditions for both compounds can be observed in Figure 3 and Figure 4.\nSolutions (50 μg/mL) of both hybrid peptides were prepared in Mili-Q water, and aliquots were kept at room temperature 22 °C, 37 °C and −80 °C for 24 h and at 80 °C for 12 h. One aliquot was also subjected to two freeze–thaw cycles with the sample first frozen at −80°C for 24 h, defrosted under running tap water at room temperature for 2 h and second frozen at −20°C for 24 h and defrosted under running tap water at room temperature for 2 h. Then, the solutions of PK20 and [Ile^9]PK20 were diluted with an equal volume of 0.2% formic acid in acetonitrile and analyzed with LC-MS."}, "mu opioid receptor": {"molecular_target": "mu opioid receptor", "settings": "intrinsic activity of the receptor; read-out: EC50 (potency) at mu opioid receptor; cited from earlier work", "excerpt": "(§5) Since hybrid compounds have gained attention due to their potent multifunctional behavior with a more favorable profile in terms of possible side effects, much work devoted to such compounds can be found. PK20 and [Ile^9]PK20, which are hybrid structures encompassing both opioid and neurotensin pharmacophores, although modified, were designed and synthesized to reduce pain."}, "[2]": {"system": "CA1 region of the hippocampus", "settings": "combined administration with NMDA, cited from earlier work", "excerpt": "as §5"}, "[3]": {"experiment": "Base hydrolysis (1 M NaOH) forced degradation, LC-MS", "type": "physicochemical", "settings": "for Recovery / Concentration Found (Mean ± SD): basic degradation, 50 μg/mL in 1 M NaOH, n = 3; for Concentration Found (Mean ± SD): neutralised with 1 M HCl", "protocol": "as §1, §2, §3, §4\n(§6) Drug solution (50 μg/mL) was prepared in HCl (1 M) or NaOH (1 M). Aliquots were kept at a temperature of 80 °C (LBK type water bath, SWL Bytom, Poland) for 12 h and 37°C (medical water bath, LW102, Auritronic, Krakow, Poland) for 24 h. At a specific time-point, acidic and basic solutions of both PK20 and [Ile^9]PK20 were neutralized with an equal volume of 1 M NaOH or 1 M HCl, respectively, and diluted with an equal volume of 0.2% formic acid in acetonitrile and analyzed using LC-MS."}, "[4]": {"experiment": "Oxidative degradation (30% H2O2), LC-MS", "type": "physicochemical", "settings": "n = 3", "protocol": "as §1, §2, §3, §4\nPK20 and [Ile^9]PK20 solution (50 μg/mL) was prepared in 30% (v/v) hydrogen peroxide (H2O2). Aliquots were incubated at 37 °C for 24 h and 80 °C for 12 h. After the incubation, each drug solution was diluted with an equal volume of 0.2% formic acid in acetonitrile and analyzed with LC-MS."}, "[5]": {"experiment": "Acid hydrolysis (1 M HCl) forced degradation, LC-MS", "type": "physicochemical", "settings": "for Recovery / Concentration Found (Mean ± SD): acidic degradation, 50 μg/mL in 1 M HCl, n = 3; for Concentration Found (Mean ± SD): neutralised with 1 M NaOH", "protocol": "as §1, §2, §3, §4, §6"}, "[6]": {"experiment": "Photolytic (UV) degradation in Mili-Q water, LC-MS", "type": "physicochemical", "settings": "365 nm UV light, 7 h, 50 μg/mL in Mili-Q water, clear plastic vials, n = 3", "protocol": "as §1, §2, §3, §4\nPK20 and [Ile^9]PK20 solution (50 μg/mL) was prepared in Mili-Q water, and aliquots were kept in clear plastic vials exposed to UV light (366 nm, Camag, UV Lamp 4, Camag, Switzerland) for 7 h. After the incubation, the drug solution was diluted with an equal volume of 0.2% formic acid in acetonitrile and analyzed with LC-MS."}, "[7]": {"settings": "thermal degradation, 37 °C, 24 h"}, "[8]": {"settings": "thermal degradation, 80 °C, 12 h"}, "[9]": {"settings": "thermal degradation, room temperature (22 °C), 24 h"}, "[10]": {"settings": "thermal degradation, −80 °C, 24 h"}, "[11]": {"settings": "thermal, temperatures ranging from 22 °C through 37 °C to +80 °C"}, "[12]": {"settings": "two freeze–thaw cycles (24 h −80 °C, 2 h 22 °C, 24 h −20 °C)"}, "[13]": {"settings": "50 μg/mL in 30% (v/v) H2O2, 37 °C, 24 h"}, "[14]": {"settings": "50 μg/mL in 30% (v/v) H2O2, 80 °C, 12 h"}},
  "note": "pEC50: −log10 of the molar value. Read-outs that look alike come from different tables or passages of the source.",
  "data": [
    {"substance": "HELM PEPTIDE1{[Cc1cc(O)cc(C)c1C[C@H](N)C(=O)[*:2]].[dK].F.F.K.K.P.F.[CC(C)(C)[C@H](N[*:1])C(=O)[*:2]].L}$$$$V2.0 (N-terminus assumed; SMILES Cc1cc(O)cc(C)c1C[C@H](N)C(=O)N[C@H](CCCCN)C(=O)N[C@@H](Cc1ccccc1)C(=O)N[C@@H](Cc1ccccc1)C(=O)N[C@@H](CCCCN)C(=O)N[C@@H](CCCCN)C(=O)N1CCC[C@H]1C(=O)N[C@@H](Cc1ccccc1)C(=O)N[C@H](C(=O)N[C@@H](CC(C)C)C(=O)O)C(C)(C)C) [PK20, opioid–neurotensin hybrid peptide]", "values": [
      {"measurement": "Concentration Found (Mean ± SD)", "setting": "[1]; [7]", "value": "49980 ± 350", "unit": "ng/mL"},
      {"measurement": "Recovery", "setting": "[1]; [7]", "value": 99.97, "unit": "%"},
      {"measurement": "Concentration Found (Mean ± SD)", "setting": "[1]; [8]", "value": "48670 ± 2740", "unit": "ng/mL"},
      {"measurement": "Recovery", "setting": "[1]; [8]", "value": 97.34, "unit": "%"},
      {"measurement": "Concentration Found (Mean ± SD)", "setting": "[1]; [9]", "value": "51360 ± 1640", "unit": "ng/mL"},
      {"measurement": "Recovery", "setting": "[1]; [9]", "value": 102.72, "unit": "%"},
      {"measurement": "Concentration Found (Mean ± SD)", "setting": "[1]; [10]", "value": "51900 ± 200", "unit": "ng/mL"},
      {"measurement": "Recovery", "setting": "[1]; [10]", "value": 103.80, "unit": "%"},
      {"measurement": "remaining concentration of the peptide", "setting": "[1]; [11]", "value": "approximately 50 μg/mL"},
      {"measurement": "remaining peptide as percentage", "setting": "[1]; [11]", "value": "~100", "unit": "%"},
      {"measurement": "Concentration Found (Mean ± SD)", "setting": "[1]; [12]", "value": "43250 ± 9420", "unit": "ng/mL"},
      {"measurement": "Recovery", "setting": "[1]; [12]", "value": 86.50, "unit": "%"},
      {"measurement": "pEC50", "setting": "mu opioid receptor", "value": 7.10},
      {"measurement": "extent of damage to the CA1 region of the hippocampus", "setting": "[2]; dose 25 ng/mL", "value": "1.47% ± 1.20"},
      {"measurement": "extent of damage to the CA1 region of the hippocampus", "setting": "[2]; dose 50 ng/mL", "value": "5.18% ± 2.84"},
      {"measurement": "extent of damage to the CA1 region of the hippocampus", "setting": "[2]; dose 100 ng/mL", "value": "6.82% ± 6.08"},
      {"measurement": "Recovery", "setting": "[3]; 37 °C, 24 h", "value": 30.32, "unit": "%"},
      {"measurement": "Concentration Found (Mean ± SD)", "setting": "[3]; 37 °C, 24 h", "value": "15160 ± 340", "unit": "ng/mL"},
      {"measurement": "Recovery", "setting": "[3]; 80 °C, 12 h", "value": 11.44, "unit": "%"},
      {"measurement": "Concentration Found (Mean ± SD)", "setting": "[3]; 80 °C, 12 h", "value": "5710 ± 1670", "unit": "ng/mL"},
      {"measurement": "half-life (t1/2) in 1M NaOH", "setting": "[3]; calculated half-life, alkaline conditions, 1 M NaOH, 50 μg/mL, temperature not given for the half-life", "value": 11.36, "unit": "h"},
      {"measurement": "Concentration Found (Mean ± SD)", "setting": "[4]; [13]", "value": "30520 ± 490", "unit": "ng/mL"},
      {"measurement": "Recovery", "setting": "[4]; [13]", "value": 61.04, "unit": "%"},
      {"measurement": "Concentration Found (Mean ± SD)", "setting": "[4]; [14]", "value": "9800 ± 200", "unit": "ng/mL"},
      {"measurement": "Recovery", "setting": "[4]; [14]", "value": 19.60, "unit": "%"},
      {"measurement": "Recovery", "setting": "[5]; 37 °C, 24 h, LC-MS", "value": 78.19, "unit": "%"},
      {"measurement": "Concentration Found (Mean ± SD)", "setting": "[5]; 37 °C, 24 h, LC-MS (EIC m/z 1357.40)", "value": "39090 ± 6330", "unit": "ng/mL"},
      {"measurement": "Recovery", "setting": "[5]; 80 °C, 12 h, LC-MS", "value": 54.43, "unit": "%"},
      {"measurement": "Concentration Found (Mean ± SD)", "setting": "[5]; 80 °C, 12 h, LC-MS", "value": "27220 ± 2750", "unit": "ng/mL"},
      {"measurement": "half-life in 1M HCl", "setting": "[5]; calculated half-life, acidic conditions, 1 M HCl, 50 μg/mL, temperature not given for the half-life, LC-MS", "value": 204.4, "unit": "h"},
      {"measurement": "Concentration Found (Mean ± SD)", "setting": "[6]; mean ± SD", "value": "18720 ± 940", "unit": "ng/mL"},
      {"measurement": "Recovery", "setting": "[6]", "value": 37.44, "unit": "%"}
    ]}
  ]
}
